Data as given in ChEMBL document CHEMBL3797052 (Eur J Med Chem, 2016).

Tests used:
Type in all cases: functional
[1] = Cytotoxicity against human HCT116 cells assessed as growth inhibition at 100 uM after 2 days by MTT assay; conditions: HCT-116, 48 h, read-out: GI
[2] = Cytotoxicity against human HCT116 cells assessed as growth inhibition at 10 uM after 2 days by MTT assay; conditions: HCT-116, 48 h, read-out: GI
[3] = Cytotoxicity against human SKBR3 cells assessed as growth inhibition at 100 uM after 2 days by MTT assay; conditions: SK-BR-3, 48 h, read-out: GI
[4] = Cytotoxicity against human SKBR3 cells assessed as growth inhibition at 10 uM after 2 days by MTT assay; conditions: SK-BR-3, 48 h, read-out: GI

SMILES: CNC(=O)c1cc(Oc2ccc(NC(=O)Nc3ccc(Cl)c(C(F)(F)F)c3)cc2)ccn1 [SORAFENIB]
- inhibition of growth at 100 µM [1]: 97.3%
- inhibition of growth at 10 µM [2]: 48.4%
- inhibition of growth at 100 µM [3]: 93.1%
- inhibition of growth at 10 µM [4]: 48.9%
